Test [1] deals with T1, GST-HBx (genotype D); HBx-D (Hepatitis B virus, UniProt Q80IS1).
T1 construct: gene X; N-terminal GST tag kept (GST 26 kDa; GST-HBx 43 kDa), full-length HBx (154 aa), pGEX, E. coli BL21 (DE3), glutathione-Sepharose
Briefly: SPR imaging, compound array (PlexArray HT). Format: binding. The text has this:
SPR imaging, compound array (PlexArray HT) on GST-HBx (genotype D); HBx-D

For test [2], the target named is T1, GST-HBx (genotype D); HBx-D. Description: biochemical. On the set-up: Surface plasmon resonance imaging; GST-HBx injected over chip of photo-crosslinked FDA-approved drugs (PlexArray HT), Langmuir fit. As for the experimental part:
All the assays and analyses were performed by Plexera LLC. The binding activity was measured by surface plasmon resonance imaging (SPRi) using a PlexArray HT system (Plexera LLC). The FDA1018 drug library chip consists of an array of 1018 U.S. FDA-approved drugs were ultraviolet-linked on the surface of a chip and used for screening of compounds that bind to the HBx protein. Phosphate-buffered saline was used for a running buffer and 10 mM glycine hydrochloride (pH 2.0) for a regeneration buffer. 25, 50, or 100 nM of GST-HBx protein were injected on the chip surface at a flow rate of […] in order, and the SPRi signal was measured at 25 °C. FK506-binding protein 12 (FKBP12) was used for a positive control (Supplementary Figure S1). The data were analyzed by Plexera Data Analysis Software based on Langmuir adsorption isotherm, and determination of the dissociation constant, dissociation rate constant, and association rate constant was carried out. The binding of GST-HBx protein to 1018 FDA-approved compounds was screened on a chip by SPRi assay. […] Because purification of HBx alone was difficult due to insolubility, HBx was expressed as a GST-fused protein.

The target in test [3] is T2, GST-HBx (genotype B); HBx-B.
T2 construct: gene X; N-terminal GST tag kept (GST 26 kDa; GST-HBx 43 kDa), full-length HBx (154 aa), pGEX, E. coli BL21 (DE3), glutathione-Sepharose
Description: SPR imaging, compound array (PlexArray HT). Further details: species or system Hepatitis B virus. Particulars: PBS, 25 °C; compound UV-linked to chip surface, GST-HBx 25-100 nM as analyte.

Structures can show the parent of a compound that is named as a salt. Where two headings read alike, the source gives them in different places.

What is called Kd is a measure of binding affinity in units of concentration. The low end stands for a tighter complex, the high end for a looser complex. For orientation: koff means the first-order rate constant of dissociation. Read a high koff as fast dissociation. One may read the kon as the second-order rate constant of association.

With `CCCCC(CC)CNC(=N)NC(=N)NCCCCCCNC(=N)NC(=N)NCC(CC)CCCC` (stereo not drawn) [Alexidine hydrochloride], binding in test [1] was put at a Kd of 0.0495 nM. In test [2], this molecule showed a koff of 7.83e-06 s⁻¹. For the same molecule, in test [2] (read-out: kon), the kon was 158000 M⁻¹ s⁻¹.
Regarding `CC1(C)[C@@H](O[C@H]2O[C@H](C(=O)O)[C@@H](O)[C@H](O)[C@H]2O[C@@H]2O[C@H](C(=O)O)[C@@H](O)[C@H](O)[C@H]2O)CC[C@]2(C)[C@H]3C(=O)C=C4[C@@H]5C[C@@](C)(C(=O)O)CC[C@]5(C)CC[C@@]4(C)[C@]3(C)CC[C@@H]12` [Ammonium glycyrrhizinate], the Kd in test [1] was found to be 0.756 nM. Also, in test [2], the koff was 0.000108 s⁻¹. Further, the kon in test [2] (read-out: kon) was determined as 143000 M⁻¹ s⁻¹.
In test [2], `CCOc1nc2cccc(C(=O)O)c2n1Cc1ccc(-c2ccccc2-c2noc(=O)[nH]2)cc1` [Azilsartan] returned a Kd of 2.38 nM and a koff of 0.000348 s⁻¹. In addition, the kon in test [2] (read-out: kon) came out at 146000 M⁻¹ s⁻¹.
For `CC[C@H]1OC(=O)[C@H](C)[C@@H](O[C@H]2C[C@@](C)(OC)[C@@H](O)[C@H](C)O2)[C@H](C)[C@@H](O[C@@H]2O[C@H](C)C[C@H](N(C)C)[C@H]2O)[C@](C)(O)C[C@@H](C)CN(C)[C@H](C)[C@@H](O)[C@]1(C)O` [Azithromycin], the Kd in test [1] was found to be 0.0467 nM; in test [3], 1.31 nM; in test [2], 1.15 nM. Further, the “kon” value worked out at 89200 M⁻¹ s⁻¹ in test [2] (binder, kon (M-1 s-1)) and 85100 M⁻¹ s⁻¹ in test [2] (read-out: kon).
In test [2], `CC(C)NCC(O)COc1ccc(CCOCC2CC2)cc1` (stereo not drawn) [Betaxolol] registered a Kd of 1.28 nM and a koff of 9.85e-06 s⁻¹. In test [2] (read-out: kon), the kon amounted to 7710 M⁻¹ s⁻¹.
For `CCOc1nc2cccc(C(=O)O)c2n1Cc1ccc(-c2ccccc2-c2nnn[nH]2)cc1` [Candesartan], in that order: 1.33 nM, 0.00021 s⁻¹ and 158000 M⁻¹ s⁻¹.
Regarding `O=C(O)c1ccc(-n2nc(-c3ccccc3O)nc2-c2ccccc2O)cc1` [Deferasirox], in test [2], the Kd is 1.4 nM and the koff came out at 0.000134 s⁻¹. Also, in test [2] (read-out: kon), the on-rate (kon) came to 95800 M⁻¹ s⁻¹.
Regarding `CCCCCCCCCCCC[N+](C)(C)CCOc1ccccc1` [Domiphen Bromide], the Kd in test [1] is 0.0288 nM. Besides, the koff in test [2] was 3.03e-06 s⁻¹. Besides, the kon in test [2] (read-out: kon) is 105000 M⁻¹ s⁻¹.
As to `CC1=NN(c2ccc(C)c(C)c2)C(=O)/C1=N\Nc1cccc(-c2cccc(C(=O)O)c2)c1O` [Eltrombopag], in test [2], the Kd was found to be 8.46 nM and the koff was 0.000385 s⁻¹. In test [2] (read-out: kon), the on-rate constant (kon) was 45500 M⁻¹ s⁻¹.
In test [2], `CCC1=C(C)CN(C(=O)NCCc2ccc(S(=O)(=O)NC(=O)N[C@H]3CC[C@H](C)CC3)cc2)C1=O` [Glimepiride] had a Kd of 9.81 nM and a koff of 0.000366 s⁻¹. Moreover, the kon in test [2] (read-out: kon) was determined as 37300 M⁻¹ s⁻¹.
Turning to `Cc1cnc(C(=O)NCCc2ccc(S(=O)(=O)NC(=O)NC3CCCCC3)cc2)cn1` [Glipizide], in test [2], the dissociation constant Kd worked out at 4.49 nM and the koff turned out to be 0.000203 s⁻¹. Further, the kon in test [2] (read-out: kon) was determined as 45100 M⁻¹ s⁻¹.
Consider `CC(C)[C@H]1CC[C@H](C(=O)N[C@H](Cc2ccccc2)C(=O)O)CC1` [Nateglinide], for which, in test [2], binding was put at a Kd of 2.31 nM and the koff was 0.00016 s⁻¹. Further, the kon in test [2] (read-out: kon) is 69100 M⁻¹ s⁻¹.
In test [2], `CCCc1nc(C(C)(C)O)c(C(=O)OCc2oc(=O)oc2C)n1Cc1ccc(-c2ccccc2-c2nnn[nH]2)cc1` [Olmesartan medoxomil] showed a koff of 0.000581 s⁻¹. In test [2] (read-out: kon), the kon stood at 108000 M⁻¹ s⁻¹.
In test [2], `CC(C(=O)O)c1ccc2c(c1)Cc1cccnc1O2` (stereo not drawn) [Pranoprofen] gave a Kd of 5.58 nM and a koff of 0.000292 s⁻¹. For the same molecule, in test [2] (read-out: kon), the kon worked out at 52300 M⁻¹ s⁻¹.
For `Cc1noc(NS(=O)(=O)c2ccc(N)cc2)c1C` [Sulfisoxazole], in that order: 9.88 nM, 0.000509 s⁻¹ and 51500 M⁻¹ s⁻¹.
Taken in the same sequence, the figures for `CC(C(=O)O)c1ccc(C(=O)c2cccs2)cc1` (stereo not drawn) [Suprofen] were 2.75 nM, 0.000308 s⁻¹ and 112000 M⁻¹ s⁻¹.
In the case of `CC[C@H]1OC(=O)C[C@@H](O)[C@H](C)[C@@H](O[C@@H]2O[C@H](C)[C@@H](O)[C@H](N(C)C)[C@H]2O)[C@@H](CCN2C[C@H](C)C[C@H](C)C2)C[C@@H](C)C(=O)/C=C/C(C)=C/[C@@H]1CO[C@@H]1O[C@H](C)[C@@H](O)[C@@H](OC)[C@H]1OC` [Tilmicosin], in test [2], the Kd stood at 1.3 nM and the koff came out at 8.79e-05 s⁻¹. Besides, the association rate constant (kon) in test [2] (read-out: kon) came to 67700 M⁻¹ s⁻¹.
As to `COc1ccc(/C=C/C(=O)Nc2ccccc2C(=O)O)cc1OC` [Tranilast], the Kd was 0.00135 nM in test [1] and 0.184 nM in test [3]. The molecule also came in with a koff in test [2] of 2.61e-07 s⁻¹. The on-rate constant (kon) in test [2] (read-out: kon) was found to be 194000 M⁻¹ s⁻¹.
With `CCCCC(=O)N(Cc1ccc(-c2ccccc2-c2nn[nH]n2)cc1)[C@H](C(=O)O)C(C)C` [Valsartan], the Kd in test [1] worked out at 0.912 nM; in test [3] it was 7.94 nM. The molecule further had a koff in test [2] of 0.00017 s⁻¹. Moreover, the kon in test [2] (read-out: kon) is 186000 M⁻¹ s⁻¹.

These data come from PMC9569680, “Antiviral Compounds Screening Targeting HBx Protein of the Hepatitis B Virus” (International Journal of Molecular Sciences, 2022).
